Where a name gives a salt, the structure may show the parent alone.
Key:
[1] = Toxicological studies in dogs; format: in vivo
[2] = tested on: C-4 Human Cervical Carcinoma; experiment: C-4 (cervical) solid tumor model; format: in vivo, Rag-2 mice
Description: Cultures of C-4 Human Cervical Carcinoma cells are available from the British Columbia Cancer Research Centre. Cells were injected subcutaneously twice into mature male Rag-2 mice (24 mice, 1×10^6 cells/mouse) using a 26-gauge needle. The C-4 cells were suspended in a Hank's Balanced Salt Solution without calcium. Tumors were allowed to form in the mice for 31 days.
When the tumors were well established, four separate groups of mice, were selected for administration of the three test articles (i.e. one group for each test article of AHVB bisulphate, AHVB ditartrate, and Navelbine™) and one control.
AHVB bisulphate and ditartrate, and Navelbine™ were solubilized using 5% dextrose saturated with Argon. These articles were administered at doses of 20 mg/Kg intravenously. Any dose dilutions were made with 5% dextrose.
The articles were administered intravenously on the days 1, 5 and 9, as were controls of 5% dextrose. Body weights and tumor measurements with calipers were taken regularly over the period of the study of 69 days.
Following administration of the test articles, the animals; weight and tumor size (using calipers) were determined regularly over the period of the study. If the tumor size reached I gram in weight or the tumor started to ulcerate, the animals were sacrificed (by carbon dioxide inhalation) and subjected to necropsy. Animals were also monitored at least daily for signs of stress for the full length of the study. Animals manifesting severe symptoms of stress (rapid weight loss, panting, hunched posture, scruffy coat) were also sacrificed and a necropsy performed.
The results of the efficacy studies are given in Table 3 and present averages of data from 6 or fewer animals. Each mouse in a given article group had two subcutaneous tumors on its back. Each tumor was measured in length and width and the volume of each tumor was calculated by […]. The two tumor volumes were then averaged. The volume averages of all the mice/group were averaged to yield a mean for each single date point. The calculation was performed each day the tumors were measured.

[3] = tested on: H460 human non-small cell lung carcinoma, C-4 human cervical carcinoma, K562 human leukaemia, and the A431 human epidermoid cell lines; experiment: MTT cytotoxicity assay, 72 hours, panel of human cancer cell lines; format: cell-based
[4] = tested on: P388 tumors; experiment: Murine P388 model in BDF1 mice; format: in vivo
Description: (§1) Antitumor studies on mice focussed, in one case, on the P388 leukaemia model. […] This is an ascitic tumor model that was generated by intraperitoneal inoculation of 1×10^6 P388 cells (derived from culture, with an original cell line obtained from the NCI tumor repository) in BDF1 mice (Charles Rivers). One day after tumor cell inoculation, mice were treated with a single intravenous injection of drug. Animal weight was monitored daily and tumor progression was measured as an increase in animal weight and through estimation of survival time. Therapy was described by a decrease in tumor progression and an increase in survival time relative to an untreated control group. Initial studies established the maximum therapeutic dose for AHVB. Subsequently comparative studies with vincristine and Navelbine™ were initiated where animals were treated with each drug at the maximum therapeutic dose.
(§2) The in vivo anti-tumor activity of AHVB was compared to that of vincristine, Navelbine™ in the BDF1-murine P388 model in the procedure as follows. P388 cells were derived from the ascities of previously injected female BDF1 mice (19-21 grams) P388 cells, from the NCI tumor repository were inoculated directly into mice. The cells arrive from NCI frozen in 1 ml aliquots. These samples were thawed rapidly at 37° C. and subsequently injected (within 1 hour) intraperitoneally into two mice, 0.5 ml per mouse. One week (7 days) after inoculation, the tumor cells were harvested by removing peritoneal fluid using a sterile syringe with a 22 gauge needle. The cells, pooled from two animals, were counted using a hemocytometer, diluted (RPMI media) to a concentration of 2×10^6 cells/ml and 0.5 ml was then re-injected into each of two BDF1 mice. Remaining cells were washed and placed into a DMSO containing media and frozen (in freezer packs that cool at a defined rate). This process was repeated weekly over a […]. Cells used for anti-tumor studies were collected from the third passage to the 20th passage. After the 20th passage the cells were no longer used for experimental studies. Newly established cells were derived from the frozen cells prepared as described above.
(§3) Groups (five mice per group) of female BDF1 mice (Charles Rivers, Canada) were injected (intraperitoneal) with 10^6 P388 cells (as described above). One day after tumor cell inoculation, the mice were given a bolus intravenous injection of indicated drug via the lateral tail vein. Control groups were injected with saline. Free drug samples were prepared on the day of injection such that the final concentrations were sufficient to deliver the indicated drug dose in a volume of 200 μl. All dilutions were made using 0.9% Sodium Chloride Injection USP. The mice were briefly (less than 30 sec.) restrained during intravenous injections. Dilation of the vein was achieved by holding the animals under a heat lamp for a period of between five and ten minutes. Following administration of the test articles, animals were weighed daily for fourteen days and monitored for signs of stress twice daily for the first 14 days (once daily on weekends) and once daily for the remainder of the study. Severely distressed animals were terminated by CO2 asphyxiation and the time of death was recorded to occur on the following day. Although complete dose titrations were completed for each drug, the data shown in FIG. 6 is that obtained after administration of the free drugs at their maximum tolerated dose. This was 3, 40 and 40 mg/kg for vincristine, Navelbine™ and AHVB, respectively.
(§4) After treating mice (bearing the P388 tumor) with a single dose of the indicated drug, animals were examined twice daily for the first 14 days (once daily on weekends). Weight gain in the control is an indication of tumor progression.
(§5) The studies were conducted as described for FIG. 6. […]

[5] = tested on: SK0V3 cells; experiment: Cytotoxicity assay, SKOV3 (FIG. 8); format: cell-based; conditions: 3 day incubation
Description: The IC50s for the SK0V3 and C-4 cells were 4.0 μM and 0.02 μM respectively. Both cell lines were obtained from the ATCC and grown using standard growth techniques and medium as described above. The IC50s were determined through standard cytoxicity assays described above, with each well containing approximately 10^4 cells.

[6] = Murine P388 model in BDF1 mice; format: in vivo; conditions: female, mouse, in vivo; single bolus intravenous injection, BDF1 mice bearing P388 tumors; read-out: maximum tolerated dose
Description: as §1, §2, §3, §4, §5

[7] = tested on: nerves; conditions: vs vinblastine, vindesine; cited from earlier work
[8] = 20 mg/kg intravenously on days 1, 5, 9

CCC1=C[C@H]2CN(CCc3c([nH]c4ccccc34)[C@@](C(=O)OC)(c3cc4c(cc3OC)N(C)[C@H]3[C@@](O)(C(=O)OC)[C@H](OC(C)=O)[C@]5(CC)C=CCN6CC[C@]43[C@@H]65)C2)C1 [AHVB, 3′,4′-anhydrovinblastine]
toxicities [1]: reversible myelosupression and gastrointestinal toxicities | activity compared with vincristine and vinorelbine ([2]; human tumor xenografts of cervical cancer, equitoxic doses): superior activity to that of both vincristine and vinorelbine | IC50 ([3]; drug exposure time 72 hours, range over H460, C-4, K562, A431): 20 to 24 nM | fold less active than Navelbine in vitro ([3]; same cell lines): approximately 10 fold | onset of acute toxic reaction at maximum tolerated dose ([4]; 40 mg/kg IV): ≤ 1 h | anti-tumor activity, number of long term survivors (>60 days) ([4]; 40 mg/kg single IV injection vs vincristine 3 mg/kg, FIG. 6): significantly better than that observed for vincristine | times less toxic (on a weight basis) than vincristine ([4]; mouse, in vivo): approximately 10 times | toxicity (vinca alkaloid induced weight loss) ([4]; single IV injection at maximum tolerated dose, 40 mg/kg, FIG. 4): least toxic of the three drugs evaluated | maximum tolerated dose ([4]; single bolus intravenous injection, BDF1 mice bearing P388 tumors): 40 mg/kg | IC50 [5]: 4000 nM

CCC1=C[C@@H]2CN(C1)Cc1c([nH]c3ccccc13)[C@@](C(=O)OC)(c1cc3c(cc1OC)N(C)[C@H]1[C@@](O)(C(=O)OC)[C@H](OC(C)=O)[C@]4(CC)C=CCN5CC[C@]31[C@@H]54)C2 [Navelbine, 3′,4′-didehydro-4′-deoxy-C′-norvincaleukoblastine-di-L-tartrate]
% Delay In Growth (Dig) [2, 8]: 84% | Initial Growth (Day) Of Expt. [2, 8]: 29 days | Initial Growth (Day) Total [2, 8]: 59 days | day tumors reached observable 'growth threshold' [2, 8]: 41 days | MTD at 14 days [6]: 40 mg/kg

CC[C@]1(O)C[C@H]2CN(CCc3c([nH]c4ccccc34)[C@@](C(=O)OC)(c3cc4c(cc3OC)N(C=O)[C@H]3[C@@](O)(C(=O)OC)[C@H](OC(C)=O)[C@]5(CC)C=CCN6CC[C@]43[C@@H]65)C2)C1 [Vincristine, Sulfate of 22-oxovincaleukoblastine]
uptake into nerves, times faster than the other drugs [7]: 4 times | MTD at 14 days [6]: 3 mg/kg
